{"source": "patent US9101133B2", "about": "“Phenyl-substituted bicyclooctane-1,3-dione-derivatives” (BAYER INTELLECTUAL PROPERTY GMBH, priority 2010, dated 2015)", "key": {"ALOMY": {"system": "ALOMY", "experiment": "Herbicidal post-emergence action", "assay_type": "in vivo", "details": "80 g/ha, visual assessment after about three weeks, 100% = plants have died", "protocol": "(§1) 2. Herbicidal Post-Emergence Action\n(§2) • Seeds of monocotylidonous and dicotylidonous weed and crop plants are placed in sandy loam in wood fibre pots, covered with soil and cultivated in a greenhouse under good growth conditions. Two to three weeks after sowing, the test plants are treated at the one-leaf stage. The test compounds, formulated as wettable powders (WP), are then with a water application rate of 600 l/ha (converted), with 0.2% of wetting agent added, sprayed onto the green parts of the plants in different amounts. After the test plants have been kept in the greenhouse under optimum growth conditions for about three weeks, the effect of the preparations is assessed visually in comparison to untreated controls (herbicidal effect in percent: 100% effect=the plants have died, 0% effect=like control plants). Post-Emergence, 80 g/ha"}, "AVEFA [1]": {"system": "AVEFA", "experiment": "Herbicidal post-emergence action", "assay_type": "in vivo", "details": "80 g/ha, visual assessment after about three weeks, 100% = plants have died", "protocol": "as §1, §2"}, "ECHCG": {"system": "ECHCG", "experiment": "Herbicidal post-emergence action", "assay_type": "in vivo", "details": "80 g/ha, visual assessment after about three weeks, 100% = plants have died", "protocol": "as §1, §2"}, "LOLMU": {"system": "LOLMU", "experiment": "Herbicidal post-emergence action", "assay_type": "in vivo", "details": "80 g/ha, visual assessment after about three weeks, 100% = plants have died", "protocol": "as §1, §2"}, "SETVI [2]": {"system": "SETVI", "experiment": "Herbicidal post-emergence action", "assay_type": "in vivo", "details": "visual assessment after about three weeks, 100% = plants have died; for herbicidal effect in percent, SETVI: 80 g/ha; for pest or weed control at 80 g/ha: 504 h, read-out: herbicidal effect in percent, SETVI", "protocol": "as §1, §2"}, "VERPE": {"system": "VERPE", "experiment": "Herbicidal post-emergence action", "assay_type": "in vivo", "details": "80 g/ha, visual assessment after about three weeks, 100% = plants have died", "protocol": "as §1, §2"}, "[3]": {"system": "larvae of the mustard beetle (Phaedon cochleariae)", "experiment": "Phaedon test (PHAECO spray treatment)", "assay_type": "in vivo", "details": "application rate of 500 g/ha; Chinese cabbage leaf discs sprayed; after 7 days", "protocol": "Phaedon Test […] Spray Treatment Solvents: 78.0 parts by weight of acetone • • 1.5 parts by weight of dimethylformamide Emulsifier: 0.5 part by weight of alkylaryl polyglycol ether To produce a suitable preparation of active compound, one part by weight of active compound is mixed with the stated amounts of solvents and emulsifier, and the concentrate is diluted with emulsifier-containing water to the desired concentration. Discs of Chinese cabbage leaves (Brassica pekinensis) are sprayed with an active compound preparation of the desired concentration and, after drying, populated with larvae of the mustard beetle (Phaedon cochleariae)."}, "[4]": {"system": "green peach aphid (Myzus persicae)", "experiment": "Myzus test (MYZUPE spray treatment)", "assay_type": "in vivo", "details": "application rate of 500 g/ha; Chinese cabbage leaf discs sprayed; after 6 days", "protocol": "Solvents: 78 parts by weight of acetone\n• 1.5 parts by weight of dimethylformamide Emulsifier: 0.5 part by weight of alkylaryl polyglycol ether\nTo produce a suitable preparation of active compound, one part by weight of active compound is mixed with the stated amounts of solvents and emulsifier, and the concentrate is diluted with emulsifier-containing water to the desired concentration.\nDiscs of Chinese cabbage leaves (Brassica pekinensis) which are infested by all stages of the green peach aphid (Myzus persicae) are sprayed with an active compound preparation of the desired concentration.\nAfter 6 days, the effect in % is determined 100% means that all aphids have been killed; 0% means that none of the aphids have been killed."}, "[5]": {"system": "monocotylidonous and dicotylidonous weed and crop plants", "experiment": "Herbicidal pre-emergence action", "assay_type": "in vivo", "details": "320 g/ha, visual assessment after three weeks, 100% = plants have died; for herbicidal effect in percent, ECHCG: ECHCG = Echinochloa crus-galli; for herbicidal effect in percent, SETVI: SETVI = Setaria viridis", "description": "1. Herbicidal Pre-Emergence Action\n• Seeds of monocotylidonous and dicotylidonous weed and crop plants are placed in sandy loam in wood fibre pots and covered with soil. The test compounds, formulated in the form of wettable powders (WP), are then, as an aqueous suspension with a water application rate of 600 l/ha (converted), with 0.2% of wetting agent added, applied to the surface of the covering soil in different amounts. • After the treatment, the pots are placed in a greenhouse and kept under good growth conditions for the test plants. The visual assessment of the emergence damage on the test plants is carried out after a trial period of three weeks by comparison with the untreated controls (herbicidal effect in percent: 100% effect=the plants have died, 0% effect=like control plants)."}, "POLCO": {"system": "POLCO", "experiment": "Herbicidal post-emergence action", "assay_type": "in vivo", "details": "80 g/ha, visual assessment after about three weeks, 100% = plants have died", "protocol": "as §1, §2"}, "APESV": {"system": "APESV", "experiment": "Herbicidal post-emergence action", "assay_type": "in vivo", "details": "100 g/ha, visual assessment after about three weeks, 100% = plants have died", "protocol": "as §1\nas §2, with “Post-Emergence, 80 g/ha” left out"}, "PHAMI": {"system": "PHAMI", "experiment": "Herbicidal post-emergence action", "assay_type": "in vivo", "details": "100 g/ha, visual assessment after about three weeks, 100% = plants have died", "protocol": "as §1\nas §2, with “Post-Emergence, 80 g/ha” left out"}, "POAAN": {"system": "POAAN", "experiment": "Herbicidal post-emergence action", "assay_type": "in vivo", "details": "100 g/ha, visual assessment after about three weeks, 100% = plants have died", "protocol": "as §1\nas §2, with “Post-Emergence, 80 g/ha” left out"}, "AVEFA [6]": {"system": "AVEFA", "experiment": "Herbicidal post-emergence action", "assay_type": "in vivo", "details": "100 g/ha, visual assessment after about three weeks, 100% = plants have died"}, "SETVI [7]": {"system": "SETVI", "experiment": "Herbicidal post-emergence action", "assay_type": "in vivo", "details": "504 h, visual assessment after about three weeks, 100% = plants have died, read-out: herbicidal effect in percent, SETVI"}}}
{"smiles": "CCc1cc(C)cc(CC)c1C1C(=O)C2CC(CCC#N)CC2C1=O", "note": "(mixture of isomers) [I-a-37]", "values": [{"measurement": "herbicidal effect in percent, ALOMY", "setting": "ALOMY", "value": 100, "unit": "%"}, {"measurement": "herbicidal effect in percent, AVEFA", "setting": "AVEFA [1]", "value": 100, "unit": "%"}, {"measurement": "herbicidal effect in percent, ECHCG", "setting": "ECHCG", "value": 100, "unit": "%"}, {"measurement": "herbicidal effect in percent, LOLMU", "setting": "LOLMU", "value": 100, "unit": "%"}, {"measurement": "herbicidal effect in percent, SETVI", "setting": "SETVI [2]", "value": 100, "unit": "%"}, {"measurement": "herbicidal effect in percent, VERPE", "setting": "VERPE", "value": 80, "unit": "%"}]}
{"smiles": "CCc1cc(C)cc(CC)c1C1C(=O)C2CC(COC(=O)Nc3ccccc3)CC2C1=O", "note": "(mixture of isomers) [I-a-44]", "values": [{"measurement": "effect in % (beetle larvae killed)", "setting": "[3]", "value": 100, "unit": "%"}]}
{"smiles": "CCc1cc(C)cc(CC)c1C1C(=O)C2CC(COC(=O)NCc3ccccc3)CC2C1=O", "note": "(mixture of isomers) [I-a-47]", "values": [{"measurement": "effect in % (beetle larvae killed)", "setting": "[3]", "value": 100, "unit": "%"}]}
{"smiles": "CCc1cc(C)cc(CC)c1C1=C(OCc2ccccc2)C2CC(C=CC#N)CC2C1=O", "note": "(mixture of isomers) [I-a-59]", "values": [{"measurement": "effect in % (aphids killed)", "setting": "[4]", "value": 100, "unit": "%"}]}
{"smiles": "CCOC(=O)OC1=C(c2c(CC)cc(C)cc2CC)C(=O)C2CC(C=CC#N)CC12", "note": "(mixture of isomers) [I-c-22]", "values": [{"measurement": "herbicidal effect in percent, ALOMY", "setting": "ALOMY", "value": 80, "unit": "%"}, {"measurement": "herbicidal effect in percent, AVEFA", "setting": "AVEFA [1]", "value": 100, "unit": "%"}, {"measurement": "herbicidal effect in percent, ECHCG", "setting": "ECHCG", "value": 100, "unit": "%"}, {"measurement": "herbicidal effect in percent, SETVI", "setting": "SETVI [2]", "value": 100, "unit": "%"}, {"measurement": "herbicidal effect in percent, VERPE", "setting": "VERPE", "value": 90, "unit": "%"}, {"measurement": "effect in % (aphids killed)", "setting": "[4]", "value": 100, "unit": "%"}]}
{"smiles": "C=C1CC2C(=O)C(c3c(CC)cc(C)cc3CC)=C(OCc3ccccc3)C2C1", "note": "(centres unmarked) [I-a-0, 3-(Benzyloxy)-2-(2,6-diethyl-4-methylphenyl)-5-methylene-4,5,6,6a-tetrahydropentalen-1(3aH)-one]", "values": [{"measurement": "melting point", "value": "87 to 88", "unit": "°C"}]}
{"smiles": "CCc1cc(C)cc(CC)c1C1C(=O)C2CC(O)CC2C1=O", "note": "(centres unmarked) [I-a-23]", "values": [{"measurement": "herbicidal effect in percent, ALOMY", "setting": "ALOMY", "value": 70, "unit": "%"}, {"measurement": "herbicidal effect in percent, AVEFA", "setting": "AVEFA [1]", "value": 60, "unit": "%"}, {"measurement": "herbicidal effect in percent, ECHCG", "setting": "ECHCG", "value": 100, "unit": "%"}, {"measurement": "herbicidal effect in percent, LOLMU", "setting": "LOLMU", "value": 90, "unit": "%"}, {"measurement": "herbicidal effect in percent, SETVI", "setting": "SETVI [2]", "value": 100, "unit": "%"}, {"measurement": "herbicidal effect in percent, ECHCG", "setting": "[5]", "value": 100, "unit": "%"}, {"measurement": "herbicidal effect in percent, SETVI", "setting": "[5]", "value": 90, "unit": "%"}]}
{"smiles": "CCc1cc(C)cc(CC)c1C1C(=O)C2CC(COCOC)CC2C1=O", "note": "(centres unmarked) [I-a-40, 2-(2,6-diethyl-4-methylphenyl)-5-methoxymethoxymethyltetrahydropentalene-1,3-dione]", "values": [{"measurement": "herbicidal effect in percent, ALOMY", "setting": "ALOMY", "value": 100, "unit": "%"}, {"measurement": "herbicidal effect in percent, AVEFA", "setting": "AVEFA [1]", "value": 90, "unit": "%"}, {"measurement": "herbicidal effect in percent, LOLMU", "setting": "LOLMU", "value": 100, "unit": "%"}, {"measurement": "herbicidal effect in percent, POLCO", "setting": "POLCO", "value": 100, "unit": "%"}, {"measurement": "pest or weed control at 80 g/ha", "setting": "SETVI [2]", "value": 90, "unit": "%"}]}
{"smiles": "CCc1cc(C)cc(CC)c1C1=C(OC(=O)C(C)(C)C)C2CC(/C=N/OC)CC2C1=O", "note": "(centres unmarked) [I-b-1, 2-(2,6-Diethyl-4-methylphenyl)-5-(methoxyimino)methyl-3-oxo-3,3a,4,5,6,6a-hexahydropentalen-1-yl 2,2-dimethylpropanoate]", "values": [{"measurement": "herbicidal effect in percent, ALOMY", "setting": "ALOMY", "value": 100, "unit": "%"}, {"measurement": "herbicidal effect in percent, AVEFA", "setting": "AVEFA [1]", "value": 100, "unit": "%"}, {"measurement": "herbicidal effect in percent, ECHCG", "setting": "ECHCG", "value": 100, "unit": "%"}, {"measurement": "herbicidal effect in percent, LOLMU", "setting": "LOLMU", "value": 100, "unit": "%"}, {"measurement": "pest or weed control at 80 g/ha", "setting": "SETVI [2]", "value": 100, "unit": "%"}, {"measurement": "herbicidal effect in percent, ALOMY", "setting": "[5]; ALOMY = Alopecurus myosuroides", "value": 100, "unit": "%"}, {"measurement": "herbicidal effect in percent, AVEFA", "setting": "[5]; AVEFA = Avena fatua", "value": 90, "unit": "%"}, {"measurement": "herbicidal effect in percent, ECHCG", "setting": "[5]", "value": 100, "unit": "%"}, {"measurement": "herbicidal effect in percent, LOLMU", "setting": "[5]; LOLMU = Lolium multiflorum", "value": 100, "unit": "%"}, {"measurement": "herbicidal effect in percent, SETVI", "setting": "[5]", "value": 100, "unit": "%"}, {"measurement": "herbicidal effect in percent, VIOTR", "setting": "[5]; VIOTR = Viola tricolor", "value": 90, "unit": "%"}]}
{"smiles": "CCOC(=O)OC1=C(c2c(CC)cc(C)cc2CC)C(=O)C2CC(C(OC)OC)CC12", "note": "(centres unmarked) [I-c-1, 2-(2,6-Diethyl-4-methylphenyl)-5-(dimethoxymethyl)-3-oxo-3,3a,4,5,6,6a-hexahydropentalen-1-yl ethyl carbonate]", "values": [{"measurement": "herbicidal effect in percent, APESV", "setting": "APESV", "value": 100, "unit": "%"}, {"measurement": "herbicidal effect in percent, PHAMI", "setting": "PHAMI", "value": 99, "unit": "%"}, {"measurement": "herbicidal effect in percent, POAAN", "setting": "POAAN", "value": 85, "unit": "%"}, {"measurement": "herbicidal effect in percent, AVEFA", "setting": "AVEFA [6]", "value": 80, "unit": "%"}, {"measurement": "pest or weed control at 100 g/ha", "setting": "SETVI [7]", "value": 97, "unit": "%"}]}
